Assay results taken from patent EP2695891B1, “OCTAPEPTIDE, RADIOPHARMACEUTICAL AGENT BASED THEREON AND METHOD FOR DIAGNOSING TUMORS” (Aktsionernoe Obschestvo "Pharm-Sintez", priority 2011, dated 2018).
Like-named read-outs stand apart in the source and are kept apart here.

Experiments:
[1] = in vivo; settings: female, F1 CBAxC57B1 hybrids, mouse, iv, total radioactivity
Description: (§1) In vivo experiments were conducted using laboratory female mice (F1 CBAxC57B1 hybrids, 18-20g). The animals were obtained from the brooder of the Biomedical Technology Research Centre at the Russian Academy of Medical Sciences in Andreevka. Pigmented B16 mice melanoma was tangled. B16 melanoma cells suspension was administered SC in aseptic conditions. Tumour growth was investigated visually. The animals were enrolled into the experiment 9-12 days after the inoculation, when the tumour diameter was 8-12cm.
(§2) During the experiment the animals were housed in standard conditions (special room, recommended food, free access to fresh water, natural lighting).
(§3) Urinary bladder filling was achieved by suturing the outer urethral orifice. The radioactivity in the sampled organs and tissues was measured by the direct radiometry method. 5 experiments were conducted, at least 3 animals were used for each experimental point.

[2] = potency distribution in mice with tangled B16 melanoma after IV administration (direct radiometry of organs and tissues); settings: female, F1 CBAxC57B1 hybrids, mouse, tumour and muscle, iv, total radioactivity
Description: as §1, §2, §3

[3] = test system: B16 melanoma; experiment: as above; settings: for Urinary bladder: full urinary bladder; for Blood: mice with B16 melanoma
Description: as §1, §2, §3

[4] = test system: B16 melanoma; settings: mouse, in vivo
Description: as §1, §2, §3

Row | SMILES | Kidneys ([3]; 30 min after IV administration) | Liver ([3]; 30 min after IV administration) | Muscle ([3]; 30 min after IV administration) [%/g] | Tumour ([3]; 30 min after IV administration) [%/g] | Blood ([3]; 30 min after IV administration) | Kidneys ([3]; 60 min after IV administration) | Liver ([3]; 60 min after IV administration) | Muscle ([3]; 60 min after IV administration) [%/g] | Tumour ([3]; 60 min after IV administration) [%/g] | Blood ([3]; 60 min after IV administration) | also measured
1 | C[C@@H](O)[C@H](NC(=O)[C@@H]1CSSC[C@H](NC(=O)[C@H](CCCCN)NC(=O)CN2CCN(CC(=O)O)CCN(CC(=O)O)CCN(CC(=O)O)CC2)C(=O)N[C@@H](Cc2ccc(O)cc2)C(=O)N[C@H](Cc2c[nH]c3ccccc23)C(=O)N[C@@H](CCCCN)C(=O)N[C@@H]([C@@H](C)O)C(=O)N1)C(=O)O [1a, marked ^68Ga, metal not drawn] |  |  |  |  |  |  |  |  |  |  | tissue to tissue ratio at 0.5 h [1]: 2.4
2 | C[C@@H](O)[C@H](NC(=O)[C@@H]1CSSC[C@H](NC(=O)[C@@H](N)CCCCNC(=O)CN2CCN(CC(=O)O)CCN(CC(=O)O)CCN(CC(=O)O)CC2)C(=O)N[C@@H](Cc2ccc(O)cc2)C(=O)N[C@H](Cc2c[nH]c3ccccc23)C(=O)N[C@@H](CCCCN)C(=O)N[C@@H]([C@@H](C)O)C(=O)N1)C(=O)O [1b, marked ^68Ga, metal not drawn] | 3.4 ± 0.3 % of the administered dose | 1.8 ± 0.7 % of the administered dose | 0.6 ± 0.1 | 2.5 ± 0.7 | 2.4 ± 0.4 % of the administered dose | 5.4 ± 0.6 % of the administered dose | 1.1 ± 0.1 % of the administered dose | 0.06 ± 0.01 | 1.2 ± 0.2 | 0.5 ± 0.07 % of the administered dose | tissue to tissue ratio at 0.5 h [2]: 4.2; Urinary bladder ([3]; 30 min after IV administration): 53.4 ± 7.7 % of the administered dose; Urinary bladder ([3]; 60 min after IV administration): 35.5 ± 3.1 % of the administered dose
3 | C[C@@H](O)[C@H](NC(=O)[C@@H]1CSSC[C@H](NC(=O)[C@H](CCCCN)NC(=O)CN2CCN(CC(=O)O)CCN(CC(=O)O)CCN(CC(=O)O)CC2)C(=O)N[C@@H](Cc2ccc(O)cc2)C(=O)N[C@H](Cc2c[nH]c3ccccc23)C(=O)N[C@@H](CCCCN)C(=O)N[C@@H]([C@@H](C)O)C(=O)N1)C(=O)O [Compound 1a] |  |  |  |  |  |  |  |  |  |  | accumulation in tumour as compared to ^68Ga-marked DE [4]: larger; blood clearance as compared to ^68Ga-marked DE [4]: faster blood clearance; renal clearance as compared to ^68Ga-marked DE [4]: faster renal clearance; tissue to tissue ratio at 1 h [1]: 7.5
4 | C[C@@H](O)[C@H](NC(=O)[C@@H]1CSSC[C@H](NC(=O)[C@@H](N)CCCCNC(=O)CN2CCN(CC(=O)O)CCN(CC(=O)O)CCN(CC(=O)O)CC2)C(=O)N[C@@H](Cc2ccc(O)cc2)C(=O)N[C@H](Cc2c[nH]c3ccccc23)C(=O)N[C@@H](CCCCN)C(=O)N[C@@H]([C@@H](C)O)C(=O)N1)C(=O)O [Compound 1b] |  |  |  |  |  |  |  |  |  |  | tissue to tissue ratio at 1 h [2]: 20; accumulation in tumour as compared to ^68Ga-marked comparison substance ([3]; 60 min after administration, fold higher than DE): 2.4 times; accumulation in tumour as compared to ^68Ga-marked DE ([3]; ^68Ga-marked, in words): larger; blood clearance as compared to ^68Ga-marked DE ([3]; ^68Ga-marked, in words): faster blood clearance; renal clearance as compared to ^68Ga-marked DE ([3]; ^68Ga-marked, in words): faster renal clearance; ratio of accumulation in tumour and muscle as compared to DE ([3]; both in 30 and in 60 minutes after administration, in words): higher
5 | C[C@@H](O)[C@H](NC(=O)[C@@H]1CSSC[C@H](NC(=O)[C@@H](Cc2ccccc2)NC(=O)CN2CCN(CC(=O)O)CCN(CC(=O)O)CCN(CC(=O)O)CC2)C(=O)N[C@@H](Cc2ccc(O)cc2)C(=O)N[C@H](Cc2c[nH]c3ccccc23)C(=O)N[C@@H](CCCCN)C(=O)N[C@@H]([C@@H](C)O)C(=O)N1)C(=O)O [DE, marked ^68Ga, metal not drawn, reference compound] | 1.6 ± 0.6 % of the administered dose | 2.8 ± 1.5 % of the administered dose | 0.6 ± 0.04 | 1.0 ± 0.2 | 2.6 ± 0.5 % of the administered dose | 1.6 ± 0.6 % of the administered dose | 2.8 ± 0.5 % of the administered dose | 0.5 ± 0.04 | 0.5 ± 0.24 | 2.6 ± 0.6 % of the administered dose | 
